Where no end group is shown, it is not given here.
Test system: LRF (luteinizing hormone release factor) induced luteinizing hormone (LH) release
Assay: In vitro test for LRF antagonist activity in rat anterior pituitary cell cultures
Type: cell-based
Source text: Pentapeptides of this invention were screened for LRF antagonist activity in vitro using rat anterior pituitary cell cultures as described by Vale et. al. [Endocrinology, 91, 562 (1972)]. The inhibition of LRF (luteinizing hormone release factor) induced luteinizing hormone (LH) release into the culture medium is the endpoint in this in vitro bioassay.

[1] = compound Molar Conc. 1 × 10^-7, LRF 3.5 × 10^-10, rat anterior pituitary cell cultures
[2] = compound Molar Conc. 3 × 10^-7, LRF 3.5 × 10^-10, rat anterior pituitary cell cultures
[3] = compound Molar Conc. 5 × 10^-8, LRF 3.5 × 10^-10, rat anterior pituitary cell cultures
[4] = compound Molar Conc. 6 × 10^-7, LRF 3.5 × 10^-10, rat anterior pituitary cell cultures
[5] = compound Molar Conc. 1 × 10^-6, LRF 2.5 × 10^-10, rat anterior pituitary cell cultures

With “LRF: luteinizing hormone releasing factor, formed in the hypothalamus; stimulates secretion of luteinizing hormone; used as the stimulus in the bioassay (QHWSYGLRPG; ends and bridges not checked; UniProt P01148 24-33, looked up) [reference compound]” as the substance, how does the “LH Value” (LRF alone, Molar Conc. 2.5 × 10^-10 (control of second experiment; saline control 7.70)) read?
The value was 36.96 ng/mL.

What about the “LH Value” (LRF alone, Molar Conc. 3.5 × 10^-10 (control of first experiment; saline control 6.46)) of the same substance?
Its value is 40.46 ng/mL.

Which results are given for “N^α -t-Butoxycarbonyl-N^im -benzyl-L-histidyl-O-methyl-L-tyrosyl-O-benzyl-L-seryl-L-tryptophyl-D-alanine N-ethylamide”?
% LH Release Inhibition [1]: 69%; LH Value [1]: 17.2 ng/mL; % LH Release Inhibition [2]: 90%; LH Value [2]: 10.16 ng/mL; % LH Release Inhibition [3]: 56%; LH Value [3]: 21.61 ng/mL; % LH Release Inhibition [4]: 98%; LH Value [4]: 7.72 ng/mL

“N^α -t-Butoxycarbonyl-N^im -benzyl-L-histidyl-O-methyl-L-tyrosyl-O-benzyl-L-seryl-L-tryptophyl-D-alanine methyl ester” was tested. Which “% LH Release Inhibition” value [5] did it give?
The value was 69%.

What about the “LH Value” [5] of the same substance?
The value was 16.89 ng/mL.
